Reference: patent publication US7875604B2, “Compounds that inhibit HIV particle formation” (University of Virginia Patent Foundation, priority 2004, dated 2011)
Where two headings read alike, the source gives them in different places.

Experiments:
HIV-1 NL4-3 = assay: Anti-HIV efficacy in fresh human PBMCs, reverse transcriptase readout, HIV-1 NL4-3; assay type: cell-based; conditions: for TI (TC50/IC50): HIV-1 NL4-3, PBMCs; for IC50: HIV-1 NL4-3, fresh human PBMCs, seven days, RT activity
Method: Compounds were evaluated for their ability to inhibit HIV replication in fresh human PBMCs. The assay was performed as follows.
Fresh human PBMCs, seronegative for HIV and HBV, were isolated from screened donors (Interstate Blood Bank, Inc. Memphis, Tenn.). Cells were pelleted/washed 2-3 times by low speed centrifugation and re-suspension in PBS to remove contaminating platelets. The Leukophoresed blood was then diluted 1:1 with Dulbecco's Phosphate Buffered Saline (DPBS) and layered over 14 mL of Lymphocyte Separation Medium (LSM; Cellgro® by Mediatech, Inc.; density 1.078+/−0.002 g/ml; Cat.#85-072-CL) in a 50 mL centrifuge tube and then centrifuged for 30 minutes at 600×g. Banded PBMCs were gently aspirated from the resulting interface and subsequently washed 2× with PBS by low speed centrifugation. After the final wash, cells were enumerated by trypan blue exclusion and re-suspended at 1×10^7 cells/mL in RPMI 1640 supplemented with 15% Fetal Bovine Serum (FBS), and 2 mM L-glutamine, 4 μg/mL Phytohemagglutinin (PHA-P, Sigma). The cells were allowed to incubate for 48-72 hours at 37° C. After incubation, PBMCs were centrifuged and resuspended in RPMI 1640 with 15% FBS, 2 mM L-glutamine, 100 U/mL penicillin, 100 μg/mL streptomycin, 10 μg/mL gentamycin, and 20 U/mL recombinant human IL-2 (R&D Systems, Inc). IL-2 is included in the culture medium to maintain the cell division initiated by the PHA mitogenic stimulation. PBMCs were maintained in this medium at a concentration of 1-2×10^6 cells/mL with biweekly medium changes until used in the assay protocol. Cells were kept in culture for a maximum of two weeks before being deemed too old for use in assays and discarded. Monocytes were depleted from the culture as the result of adherence to the tissue culture flask.
(§1) For the standard PBMC assay, PHA-P stimulated cells from at least two normal donors were pooled (mixed together), diluted in fresh medium to a final concentration of 1×10^6 cells/mL, and plated in the interior wells of a 96 well round bottom microplate at 50 μL/well (5×10^4 cells/well) in a standard format developed by the Infectious Disease Research department of Southern Research Institute. Pooling (mixing) of mononuclear cells from more than one donor is used to minimize the variability observed between individual donors, which results from quantitative and qualitative differences in HIV infection and overall response to the PHA and IL-2 of primary lymphocyte populations. Each plate contains virus/cell control wells (cells plus virus), experimental wells (drug plus cells plus virus) and compound control wells (drug plus media without cells, necessary for MTS monitoring of cytotoxicity). Since HIV-1 is not cytopathic to PBMCs, this allows the use of the same assay plate for both antiviral activity and cytotoxicity measurements. Test drug dilutions were prepared at a 2× concentration in microtiter tubes and 100 μL of each concentration was placed in appropriate wells using the standard format. 50 μL of a predetermined dilution of virus stock was placed in each test well (final MOI≅0.1). The PBMC cultures were maintained for seven days following infection at 37° C., 5% CO2. After this period, cell-free supernatant samples were collected for analysis of reverse transcriptase activity as a measure of virus release. Following removal of supernatant samples, compound cytotoxicity was measured by addition of MTS to the plates for determination of cell viability. Wells were also examined microscopically and any abnormalities were noted.
A microtiter plate-based reverse transcriptase (RT) reaction was utilized (Buckheit et al., AIDS Research and Human Retroviruses 7:295-302, 1991). Tritiated thymidine triphosphate (3H-TTP, 80 Ci/mmol, NEN) was received in 1:1 dH2O:Ethanol at 1 mCi/mL. […]

[1] = HIV-1 Rev assay toxicity/non-specificity readout (Firefly Luciferase); assay type: cell-based; conditions: human
Method: The eight compounds listed in Table 1 were also tested in an assay that measured HIV-1 Rev function. The HIV-1 Rev assay is based upon the use of a reporter for detecting whether drug candidates are capable of inhibiting the function of the viral Rev protein. The reporter used for these assays is the Renilla Luciferase protein, which is an enzyme that produces detectable light when mixed with certain chemicals. For this assay, a cell line has been developed in which the production of the reporter by the cells requires the function of HIV-1 Rev. Therefore, if a drug candidate inhibits the function of Rev, it decreases the amount of the reporter produced by the cells. By using Renilla Luciferase as the reporter, the inhibition of Rev is easily detected as a decrease in the amount of light produced by the cells when mixed with the appropriate chemicals. Furthermore, the cell line for this assay has been engineered to use a second similar reporter (Firefly Luciferase) that detects whether drug candidates are toxic.
(§2) Compounds were tested in the Rev assay using the maximum high-test concentration possible based on the supplied stocks as shown in Table 3. Compounds were prepared at a 2× high-test concentration by combining drug stock with tissue culture media at a ratio of 5 μL of drug to 995 μL of media. This 2× high-test sample was subsequently serially diluted in tissue culture media using 1/2 log dilutions. This series of 2× concentrated drug was subsequently diluted 1:1 by combining with an equal volume of cells in media in the 96-well plates used for the assay. Representative data for two of the compounds is also depicted in FIG. 5.
Leptomycin B is a control compound known to inhibit Rev function.

[2] = MTS staining for PBMC viability to measure cytotoxicity; assay type: cell-based, human; conditions: human
Method: as §1
At assay termination, assay plates were stained with the soluble tetrazolium-based dye MTS (CellTiter 96 Reagent, Promega) to determine cell viability and quantify compound toxicity. The mitochondrial enzymes of metabolically active cells metabolize MTS to yield a soluble formazan product. This allows the rapid quantitative analysis of cell viability and compound cytotoxicity. […] At termination of the assay, 20 μL of MTS reagent was added per well. The microtiter plates were then incubated 4-6 hrs at 37° C. The incubation intervals were chosen based on empirically determined times for optimal dye reduction. Adhesive plate sealers were used in place of the lids, the sealed plate was inverted several times to mix the soluble formazan product and the plate was read spectrophotometrically at 490/650 nm with a Molecular Devices Vmax or SpectraMaxPlus plate reader.
as §2, with “PBMC” for “Rev”, “which are listed” for “as shown”, “table” for “Table”, “assay.” for “assay. Representative data for two of the compounds is also depicted in FIG. 5.”

[3] = Human immunodeficiency virus 1, NL43, PBMC, 168 h
[4] = PBMC plates with HIV-1 BR/93/021, MTS, read-out: TC50
[5] = PBMC plates with HIV-1 NL4-3, MTS, read-out: TC50

| Compound | TI (TC50/IC50) (HIV-1 NL4-3) | IC50 (HIV-1 NL4-3) [µM] | CC50 at 24 hours [1] [µM] | IC50 (HIV-1 NL4-3; [3]) [µM] | CC50 at 7 days [2, 4] [µM] | CC50 at 7 days [2, 5] [µM] | CC50 at 7 days ([2]; TC50) [µM] | CC50 at 24 hours ([1]; 50% inhibition of Firefly Luciferase (toxicity/non-specificity), 24 hours, read-out: TC50) [µM] |
| --- | --- | --- | --- | --- | --- | --- | --- | --- |
| 2-chloro-N-(4-methylphenyl)-4-(trifluoromethyl)-1,3-thazole-5-carboxamide [Compound 91161] | 5.92 | 2.28 |  |  |  |  |  |  |
| CCc1c(C(=O)Nc2ccccc2)c(C)nc2sc(C(N)=O)c(N)c12 [Compound 75168, 3-amino-4-ethyl-6-methyl-N˜5˜-phenylthieno[2,3-b]pyridine-2,5-dicarboxamide] | >1.59 |  | 7.91 | 16.9 | > 26.8 | > 26.8 |  |  |
| COc1ccc2cc3c(N)n[nH]c3nc2c1 [Compound 89246, 7-methoxy-1H-pyrazolo[3,4-b]quinolin-3-ylamine] | 14.90 |  | 8.41 | 1.47 | 32.7 | 21.9 |  |  |
| CCc1c(C)nc2sc(C(N)=O)c(N)c2c1C [Compound 103833, 3-amino-5-ethyl-4,6-dimethylthieno[2,3-b]pyridine-2-carboxamide] | >16.94 |  | > 37.6 | 2.22 |  |  | > 37.6 |  |
| COc1ccc2nc(C(F)(F)F)c(C#N)c(N)c2c1 [Compound 104366, 4-amino-6-methoxy-2-(trifluoromethyl)-3-quinolinecarbonitrile] | 23.91 |  |  | 0.92 | 24.9 | 22 |  | 17.2 |
| CS(=O)(=O)c1ncc(-c2ccc(Br)cc2)cn1 [Compound 107129, -(4-bromophenyl)-2-(methylsulfonyl)pyrimidine] | 1.95 |  | 30.9 | 2.12 | 6.26 | 4.13 |  |  |
| COc1cccc(NC(=O)c2cc(Cl)nnc2Cl)c1 [Compound 107740, 3,6-dichloro-N-(3-methoxyphenyl)-4-pyridazinecarboxamide] | 8.94 |  | 18.5 | 1.61 | 18.8 | 14.4 |  |  |
| Fc1ccc(Nc2ncnc3ccccc23)cc1Cl [Compound 109020, N-(3-chloro-4-fluorophenyl)-N-(4-quinazolinyl)amine] | >1.55 |  | > 40.8 | 26.4 |  |  | > 40.8 |  |
